Experimental findings from ChEMBL document CHEMBL1156829 (Proc Natl Acad Sci U S A, 2008) are described below.

Series [1] concerns Plasmodium falciparum. In words: NOVARTIS: Inhibition of Plasmodium falciparum W2 (drug-resistant) proliferation in erythrocyte-based infection assay. Type of series: functional, organism-based. As to conditions: Plasmodium falciparum, W2; read-out: EC50.
The nature of series [2]: NOVARTIS: Cytotoxicity against human hepatocellular carcinoma cell line (Huh7). It is filed as toxicity, cell-based, Huh-7. The note with it: Huh7 cells (hepatocellular carcinoma cell line).
Series [3] relates to Plasmodium falciparum. The experiment in a line: NOVARTIS: Inhibition of Plasmodium falciparum 3D7 (drug-susceptible) proliferation in erythrocyte-based infection assay. It is filed as functional, organism-based. The note with it: Plasmodium falciparum, 3D7.

A word on the EC50: it is the concentration giving half of the maximal effect. What is called CC50 is the concentration giving 50% cytotoxicity. Read a high CC50 as better tolerance by the cells. Regarding `O=C(O)C1Cc2c([nH]c3ccccc23)C(c2ccc(Cl)cc2Cl)N1` (stereo not given), the EC50 was found to be 688 nM in the series with Plasmodium falciparum [1] and 1020 nM in the series with Plasmodium falciparum [3]. This compound also had a CC50 in series [2] of over 100000 nM.
Turning to `COc1cc2nc(NCC3CCCO3)n3nc(-c4ccccc4)nc3c2cc1OC` (stereo not given), the values for the EC50 in the series with Plasmodium falciparum [1] and with Plasmodium falciparum [3] were 662 nM and 293 nM, respectively. Further, in series [2], the CC50 was over 100000 nM.
Regarding `Cc1ccc(N(C(=O)c2snc(C(=O)NC3CCCCC3)c2N)C(C(=O)NCCc2ccccc2)c2ccc(O)cc2)c(C)c1` (stereo not given), the EC50 was determined as 672 nM in the series with Plasmodium falciparum [1] and 1480 nM in the series on Plasmodium falciparum [3]. The CC50 in series [2] is over 100000 nM.
Taken in the same sequence, the figures for `N=c1n(Cc2ccccc2)c2ccccc2n1CC(O)c1ccc(Cl)c(Cl)c1` (stereo not given) were 43.6 nM, 214 nM and 6590 nM.
Taken in the same sequence, the figures for `COc1ccc2nc(C)cc(Nc3cccc(O)c3)c2c1` were 347 nM, 228 nM and 51000 nM.
Taken in the same sequence, the figures for `COc1cc(C(=O)NCCc2ccccn2)ccc1OC1CCN(CC(c2ccccc2)c2ccccc2)CC1` were 86.4 nM, 440 nM and 13000 nM.
With `Cc1[nH]c2ccccc2c(=O)c1Br`, the EC50 with Plasmodium falciparum [1] is 686 nM; in the series with Plasmodium falciparum [3], 532 nM. The compound further came in with a CC50 in series [2] of over 100000 nM.
Taken in the same sequence, the figures for `Cc1c(C=O)c2ccccc2n1CC(=O)Nc1cccc(I)c1` were 405 nM, 365 nM and over 61200 nM.
Taken in the same sequence, the figures for `CN1CCN(c2nc(NN=Cc3cc(I)ccc3O)nc(Nc3ccc([N+](=O)[O-])cc3)n2)CC1` were 316 nM, 383 nM and 47700 nM.
Taken in the same sequence, the figures for `CCCn1cc(SCC(=O)NCc2ccco2)c2ccccc21` were 673 nM, 1020 nM and over 100000 nM.
Regarding `O=C(NCCCCNC(=O)Nc1cccc(C2=NCCN2)c1)Nc1cccc(C2=NCCN2)c1`, the values for the EC50 in the series on Plasmodium falciparum [1] and in the series on Plasmodium falciparum [3] were 67.2 nM and 203 nM, respectively. The compound also showed a CC50 in series [2] of over 10000 nM.
Taken in the same sequence, the figures for `CCOC(=O)C1=C(C)NC2=C(C(=O)C(C(=O)OCC)C(c3cccc(OC)c3)C2)C1c1ccc(Br)cc1` (stereo not given) were 671 nM, 2170 nM and over 100000 nM.
Taken in the same sequence, the figures for `Oc1ccc(-c2cncnc2)cc1CNC1CCN(Cc2ccccc2)CC1` were 671 nM, 698 nM and over 100000 nM.
With `CC(=O)c1cc(CN2CCC(C(=O)Nc3ccc(-n4nc(C)cc4C)cc3)CC2)cs1`, the EC50 in the series with Plasmodium falciparum [1] is 665 nM; in the series on Plasmodium falciparum [3] it was 969 nM. Also, the CC50 in series [2] was over 100000 nM.
Taken in the same sequence, the figures for `CN1CCc2c(sc3nc(SCc4ccccc4)n(-c4ccccc4)c(=O)c23)C1` were 670 nM, 1770 nM and over 100000 nM.
Taken in the same sequence, the figures for `CN1CCN(c2nc(NN=Cc3cccc(Cl)c3)nc(Nc3ccc([N+](=O)[O-])cc3)n2)CC1` were 290 nM, 500 nM and 43400 nM.
Taken in the same sequence, the figures for `O=C(NCc1ccc2c(c1)OCO2)C1CNCC1c1ccc(C(F)(F)F)cc1` (stereo not given) were 362 nM, 325 nM and 54300 nM.
On to `Brc1ccc(/C=C/c2cc[n+](Cc3ccccc3)cc2)cc1`, for which the EC50 with Plasmodium falciparum [1] was 66.6 nM; in the series on Plasmodium falciparum [3], 112 nM. The CC50 in series [2] was over 10000 nM.
Taken in the same sequence, the figures for `CCc1ccc2[nH]c(=O)c(CN(CCCN(CC)CC)C(=S)NCCCN(C)C)cc2c1` were 664 nM, 2040 nM and over 100000 nM.
Taken in the same sequence, the figures for `Cc1ccc(N=Nc2nc3ccccc3n2C)c(C)c1` were 24.1 nM, 87.5 nM and 3600 nM.
Taken in the same sequence, the figures for `CC1=CC(=C(C#N)c2nc3ccccc3s2)C=C(C)N1CC1CCCO1` (stereo not given) were 670 nM, 411 nM and over 100000 nM.
`Cc1ccc(C=NNC(=O)c2nnn(-c3nonc3N)c2-c2ccc([N+](=O)[O-])cc2)cc1`: the EC50 in the series on Plasmodium falciparum [1] was found to be 503 nM; with Plasmodium falciparum [3], 204 nM. Besides, in series [2], the CC50 was over 73000 nM.
Taken in the same sequence, the figures for `C[N+](C)(CC#Cc1ccccc1)CC#Cc1ccccc1` were 679 nM, 1930 nM and over 100000 nM.
With `CCC(C(=O)N1CCN(Cc2ccccc2)CC1)c1ccccc1` (stereo not given), the EC50 was found to be 677 nM in the series on Plasmodium falciparum [1] and 6910 nM in the series on Plasmodium falciparum [3]. Moreover, the CC50 in series [2] was over 100000 nM.
Take `CCCn1nc(Oc2nc(NCC)cc(OC)n2)ccc1=O`: the EC50 in the series on Plasmodium falciparum [1] amounted to 677 nM; in the series on Plasmodium falciparum [3] it was 384 nM. For the same compound, the CC50 in series [2] was over 100000 nM.
Consider `CCc1n(CC(=O)OC2CC(C)CCC2C(C)C)c2ccccc2[n+]1C` (stereo not given), for which the results for the EC50 in the series with Plasmodium falciparum [1] and with Plasmodium falciparum [3] were 203 nM and 267 nM, respectively. Moreover, the CC50 in series [2] was 29900 nM.
Taken in the same sequence, the figures for `CCOc1ccc2[nH]c(=O)c(CN(CCCN3CCOCC3)C(=S)NCCCN(CC)CC)cc2c1` were 679 nM, 2610 nM and over 100000 nM.
Taken in the same sequence, the figures for `O=C(NC(=CC=Cc1ccccc1)C(=O)N1CCOCC1)c1ccc(Br)cc1` were 683 nM, over 10400 nM and over 100000 nM.
Taken in the same sequence, the figures for `CNc1ccccc1C(=O)N(C)CCc1ccccc1` were 68.3 nM, over 1250 nM and over 10000 nM.
Turning to `Oc1ccc(-c2ccccn2)cc1CNC1CCN(Cc2ccccc2)CC1`, the EC50 in the series with Plasmodium falciparum [1] was determined as 143 nM; in the series with Plasmodium falciparum [3], 411 nM. Also, it took 21000 nM to reach half-maximal cytotoxicity in series [2] (CC50).
Regarding `Cc1ccccc1-c1cccc(CN2CCCCC2CCn2cc(C(=O)NC3CC3)nn2)c1` (stereo not given), the EC50 was determined as 685 nM with Plasmodium falciparum [1] and 1470 nM in the series with Plasmodium falciparum [3]. For the same compound, the CC50 in series [2] is over 100000 nM.
As for `CC(=O)Nc1ccc(C2NC(=O)NC3=Nc4ccccc4SC(c4ccccc4)=C32)cc1` (stereo not given), the EC50 in the series with Plasmodium falciparum [1] amounted to 689 nM; in the series on Plasmodium falciparum [3], 1020 nM. Moreover, the CC50 in series [2] is over 100000 nM.
Taken in the same sequence, the figures for `COc1ccc(CNc2cc(-c3ccc(F)c(F)c3)nc3ccnn23)cc1` were 687 nM, 675 nM and over 100000 nM.
Taken in the same sequence, the figures for `COc1ccc(C(=O)ON=C(N)Cc2ccc(Cl)cc2Cl)cc1[N+](=O)[O-]` were 675 nM, 4980 nM and over 100000 nM.
Taken in the same sequence, the figures for `CC(NC(=O)C(=O)N1CCCCC1)C(c1cccs1)N1CCOCC1` (stereo not given) were 675 nM, over 1680 nM and over 100000 nM.
Regarding `CCOC(=O)c1cnc2c(C)cc(C)cc2c1Nc1ccc(C(C)=O)cc1`, the EC50 worked out at 675 nM in the series with Plasmodium falciparum [1] and 749 nM in the series on Plasmodium falciparum [3]. This compound also came in with a CC50 in series [2] of over 100000 nM.
For `Cc1nnc(Nc2ccc(F)cc2)c2ccccc12`, the figures for the EC50 in the series with Plasmodium falciparum [1] and in the series with Plasmodium falciparum [3] were over 68.9 nM and over 1250 nM, respectively. The same compound registered a CC50 in series [2] of over 10000 nM.
Taken in the same sequence, the figures for `Cc1cc(Nc2ccc(Cl)c(Cl)c2)n2ncnc2n1` were 674 nM, 1680 nM and over 100000 nM.
For the compound `COc1ccc(Cl)cc1NC(=S)NNC(=O)c1cccnc1`, the results for the EC50 with Plasmodium falciparum [1] and in the series on Plasmodium falciparum [3] were 664 nM and 536 nM, respectively. The CC50 in series [2] is over 100000 nM.
Taken in the same sequence, the figures for `O=C(Nc1ccc(-n2cnnn2)cc1)C1CCN(Cc2cc3ccccc3o2)CC1` were 416 nM, 198 nM and over 61900 nM.
For the compound `O=c1c2c([nH]c3ccccc13)CCCCCCCCCC2`, the results for the concentration giving a half-maximal response (EC50) with Plasmodium falciparum [1] and with Plasmodium falciparum [3] were 671 nM and 277 nM, respectively. In addition, in series [2], the CC50 was over 100000 nM.
Taken in the same sequence, the figures for `Cc1ccc(-n2c(-c3ccccc3)cc(C=NNC(=O)c3cccc(-n4c(C)ccc4C)c3)c2-c2ccccc2)cc1` were 684 nM, 867 nM and over 100000 nM.
Taken in the same sequence, the figures for `c1ccc(CC[n+]2cc(-c3ccccc3)n3c2CCC3)cc1` were 684 nM, 660 nM and over 100000 nM.
Turning to `Clc1ccc(-c2c[n+](Cc3ccc(Cl)c(Cl)c3)c3n2CCC3)cc1`, the EC50 with Plasmodium falciparum [1] is 623 nM; in the series on Plasmodium falciparum [3], 446 nM. In series [2], the CC50 was over 93600 nM.
As for `CN(C)c1cc[n+](CC(=O)c2cccs2)cc1`, the EC50 in the series with Plasmodium falciparum [1] was found to be 688 nM; in the series with Plasmodium falciparum [3] it was 649 nM. In series [2], this compound showed a CC50 of over 100000 nM.
Taken in the same sequence, the figures for `OC1CCCCC1C1(NC(=S)Nc2ccccc2)CCCCC1` (stereo not given) were 153 nM, 211 nM and 22800 nM.
Taken in the same sequence, the figures for `Cn1ccnc1C1CCCCN1C(=O)c1cc(COc2ccc(F)cc2Cl)on1` (stereo not given) were 673 nM, 1830 nM and over 100000 nM.
Taken in the same sequence, the figures for `CCCN(CCC)C(=O)Cn1ccc(=N)c2ccccc21` were 671 nM, 1200 nM and over 100000 nM.
In the case of `COc1ccc(Nc2nc(NN=Cc3cc4c(cc3Br)OCO4)nc(Nc3ccc([N+](=O)[O-])cc3)n2)cc1`, the EC50 in the series on Plasmodium falciparum [1] worked out at 684 nM; with Plasmodium falciparum [3], 460 nM. For the same compound, the CC50 in series [2] is over 100000 nM.
Taken in the same sequence, the figures for `Cc1ccc(C(=O)Oc2ccccc2-c2nc3ccccn3c2NC(C)(C)CC(C)(C)C)cc1[N+](=O)[O-]` were 67.5 nM, 1240 nM and over 10000 nM.
In the case of `O=C1CN(C(=O)CCC2CCCC2)C(c2ccc(F)cc2)c2cc(Cl)ccc2N1` (stereo not given), the figures for the EC50 in the series on Plasmodium falciparum [1] and in the series with Plasmodium falciparum [3] were 180 nM and 231 nM, respectively. It took 26300 nM to reach half-maximal cytotoxicity in series [2] (CC50).
Consider `COc1cccc(-c2ccc(O)c(CN3CCCC(C)C3)c2)n1` (stereo not given), for which the EC50 in the series with Plasmodium falciparum [1] came to 67.9 nM; with Plasmodium falciparum [3], 543 nM. The compound further came in with a CC50 in series [2] of over 10000 nM.
Taken in the same sequence, the figures for `N#Cc1ccc(N2CCN(C(=O)c3ccc(F)cc3Cl)CC2)cc1` were 67.5 nM, 155 nM and over 10000 nM.
For `CCCCNC(=O)c1nn(-c2ccc(OC)cc2)c(=O)c2ccccc12`, the EC50 in the series with Plasmodium falciparum [1] worked out at 680 nM; in the series with Plasmodium falciparum [3] it was 2250 nM. In series [2], this compound displayed a CC50 of over 100000 nM.
Taken in the same sequence, the figures for `C[n+]1cccc(C=C2c3ccccc3-c3ncccc32)c1` were 678 nM, 173 nM and over 100000 nM.
